Source: article PMC8228600, “Design, Synthesis, In Vitro and In Vivo Evaluation of Heterobivalent SiFAlin-Modified Peptidic Radioligands Targeting Both Integrin αvβ3 and the MC1 Receptor—Suitable for the Specific Visualization of Melanomas?” (Pharmaceuticals, 2021)
Where two headings read alike, the source gives them in different places. Where a SMILES comes first, the peptide text is derived from it. [ ]: non-standard residue; d: D form.

How the values were obtained:
integrin αvβ3 = biological target: T1, integrin αvβ3 (Homo sapiens, UniProt P05106+P06756); assay: Competitive displacement assay on integrin αvβ3-positive U87MG cells vs [125I]I-echistatin; assay type: binding
T1 construct: host or cells: U87MG human glioblastoma cells (whole cells)
Experimental: (§1) As in vitro receptor affinities represent an important parameter for the in vivo tumor uptake of radiotracers, the binding affinities of 1–6 were determined to both target receptors—integrin αvβ3 and the MC1R—in competitive displacement assays.
(§2) Murine melanoma cells (B16F10) and human glioblastoma cells (U87MG) as well as Dulbecco’s Modified Eagle’s Medium (DMEM) and Eagle’s Minimum Essential Medium (EMEM) were purchased from ATCC (Wesel, Germany). Fetal calf serum (FCS) was obtained from Bio&SELL (Feucht, Germany); phosphate-buffered saline (PBS), 1,10-phenanthroline, tris(hydroxymethyl)aminomethane hydrochloride (Tris·HCl) and manganese chloride (MnCl2) were obtained from Sigma-Aldrich (Taufkirchen, Germany); penicillin/streptomycin (pen/strep) and 0.25% Trypsin with 0.02% EDTA-solution in PBS were obtained from Gibco (Schwerte, Germany); 2-(4-(2-hydroxyethyl)-1-piperazinyl)-ethanesulfonic acid (HEPES) was obtained from Gerbu (Heidelberg, Germany); bovine serum albumin (BSA), sodium chloride (NaCl), calcium chloride (CaCl2) and magnesium chloride (MgCl2) were obtained from Carl Roth (Karlsruhe, Germany). [^125I]I-NDP (NEX352, 81.4 GBq/μmol) and [^125I]I-echistatin (NEX083, 81.4 GBq/μmol) were purchased from PerkinElmer (Rodgau, Germany). γ-counting was performed using a 2480 Wizard^2 gamma counter system from PerkinElmer.
(§3) To determine the binding affinity to the respective receptor, competitive displacement studies were performed on MC1R-expressing B16F10 and on integrin αvβ3-expressing U87MG cells. Each compound was evaluated at least three times, each experiment being performed in triplicate. As radioligands, [^125I]I-NDP (81.4 GBq/μmol) and [^125I]I-echistatin (81.4 GBq/μmol) were used as competitors. First, the Millipore MultiScreen 96-well filter plate was incubated with 200 μL/well of a BSA/PBS (1/99, w/v) solution at 25 °C for 1 h. After preparing the binding buffers (DMEM with 25 mM HEPES, 0.3 mM 1,10-phenanthroline and 0.2% BSA; EMEM with 20 mM Tris·HCl, 150 mM NaCl, 2 mM CaCl2, 1 mM MgCl2, 1 mM MnCl2 and 0.1% BSA), the dilution series of the HBPLs 1–6 (0.04–4 μM and 2–400 μM) and the reference agents 36–39 (0.01–1 μM and 0.04–400 μM) were prepared in the respective binding buffer. The solution of the respective radioligand was prepared by adding 55–75 kBq of the respective ^125I-labeled competitor to 3.5 mL of binding buffer. The respective cells were harvested and re-suspended in the binding buffer to give a cell concentration of 2 × 10^6/mL. After the BSA solution was filtered using the Millipore Multiscreen vacuum manifold, 50 μL of a cell suspension containing 10^5 cells were seeded in each well. Subsequently, 25 μL of the ^125I-labeled competitor solution (0.018 kBq/μL) and 25 μL of the respective compound to be tested were added. The compound to be tested was added in eleven increasing concentrations, whereas the 12th well contained no test compound to ensure the 100% binding of the ^125I-labeled competitor. After incubation of the plate for another hour at 25°C, the solution was filtrated using the Millipore Multiscreen vacuum manifold, and the cells were washed three times with cold PBS (1 × 200 μL, 2 × 100 μL). Using a Millipore MultiScreen disposable punch and a Millipore MultiScreen punch kit, the filters of the well plate were collected in γ-counter tubes separately and measured by γ-counting. The determination of the half-maximal inhibitory concentration (IC50) values was performed by fitting the obtained data via nonlinear regression using GraphPad Prism (v6.05).

MC1R = biological target: T2, MC1R (Mus musculus, UniProt Q01727); assay: Competitive displacement assay on MC1R-positive B16F10 cells vs [125I]I-NDP; assay type: binding, murine
T2 construct: host or cells: B16F10 murine melanoma cells (whole cells)
Experimental: as §1, §2, §3

| Compound | IC50 (integrin αvβ3) [nM] | IC50 (MC1R) [nM] | other results |
| --- | --- | --- | --- |
| CCCC[C@H](NC(=O)CNC(=O)CNC(=O)CCOCCOCCC(=O)NCCCN(CCCNC(=O)CCOCCOCCC(=O)NCCCC[C@@H]1NC(=O)[C@@H](Cc2ccccc2)NC(=O)[C@H](CC(=O)O)NC(=O)CNC(=O)[C@H](CCCNC(=N)N)NC1=O)CC(=O)N[C@@H](CCCCNC(=O)CCC[N+](C)(C)Cc1ccc([Si](F)(C(C)(C)C)C(C)(C)C)cc1)C(N)=O)C(=O)N[C@H]1CC(=O)NCCCC[C@@H](C(N)=O)NC(=O)[C@H](Cc2c[nH]c3ccccc23)NC(=O)[C@H](CCCNC(=N)N)NC(=O)[C@@H](Cc2ccccc2)NC(=O)[C@H](Cc2c[nH]cn2)NC1=O [HBPL 1, SiFAlin-APG-PEG1-c(RGDfK)/GG-Nle-c(DHfRWK)] | 2880 ± 757 | 1.74 ± 0.25 | – |
| CCCC[C@H](NC(=O)CNC(=O)CNC(=O)CCOCCOCCOCCOCCC(=O)NCCCN(CCCNC(=O)CCOCCOCCOCCOCCC(=O)NCCCC[C@@H]1NC(=O)[C@@H](Cc2ccccc2)NC(=O)[C@H](CC(=O)O)NC(=O)CNC(=O)[C@H](CCCNC(=N)N)NC1=O)CC(=O)N[C@@H](CCCCNC(=O)CCC[N+](C)(C)Cc1ccc([Si](F)(C(C)(C)C)C(C)(C)C)cc1)C(N)=O)C(=O)N[C@H]1CC(=O)NCCCC[C@@H](C(N)=O)NC(=O)[C@H](Cc2c[nH]c3ccccc23)NC(=O)[C@H](CCCNC(=N)N)NC(=O)[C@@H](Cc2ccccc2)NC(=O)[C@H](Cc2c[nH]cn2)NC1=O [HBPL 2, SiFAlin-APG-PEG3-c(RGDfK)/GG-Nle-c(DHfRWK)] | 1300 ± 288 | 0.99 ± 0.11 | – |
| CCCC[C@H](NC(=O)CNC(=O)CNC(=O)CCOCCOCCOCCOCCOCCOCCC(=O)NCCCN(CCCNC(=O)CCOCCOCCOCCOCCOCCOCCC(=O)NCCCC[C@@H]1NC(=O)[C@@H](Cc2ccccc2)NC(=O)[C@H](CC(=O)O)NC(=O)CNC(=O)[C@H](CCCNC(=N)N)NC1=O)CC(=O)N[C@@H](CCCCNC(=O)CCC[N+](C)(C)Cc1ccc([Si](F)(C(C)(C)C)C(C)(C)C)cc1)C(N)=O)C(=O)N[C@H]1CC(=O)NCCCC[C@@H](C(N)=O)NC(=O)[C@H](Cc2c[nH]c3ccccc23)NC(=O)[C@H](CCCNC(=N)N)NC(=O)[C@@H](Cc2ccccc2)NC(=O)[C@H](Cc2c[nH]cn2)NC1=O [HBPL 3, SiFAlin-APG-PEG5-c(RGDfK)/GG-Nle-c(DHfRWK)] | 1910 ± 70 | 3.44 ± 0.09 | – |
| CCCC[C@H](NC(=O)CNC(=O)CNC(=O)CCOCCOCCOCCOCCOCCOCCOCCOCCOCCC(=O)NCCCN(CCCNC(=O)CCOCCOCCOCCOCCOCCOCCOCCOCCOCCC(=O)NCCCC[C@@H]1NC(=O)[C@@H](Cc2ccccc2)NC(=O)[C@H](CC(=O)O)NC(=O)CNC(=O)[C@H](CCCNC(=N)N)NC1=O)CC(=O)N[C@@H](CCCCNC(=O)CCC[N+](C)(C)Cc1ccc([Si](F)(C(C)(C)C)C(C)(C)C)cc1)C(N)=O)C(=O)N[C@H]1CC(=O)NCCCC[C@@H](C(N)=O)NC(=O)[C@H](Cc2c[nH]c3ccccc23)NC(=O)[C@H](CCCNC(=N)N)NC(=O)[C@@H](Cc2ccccc2)NC(=O)[C@H](Cc2c[nH]cn2)NC1=O [HBPL 4, SiFAlin-APG-PEG8-c(RGDfK)/GG-Nle-c(DHfRWK)] | 2030 ± 323 | 6 ± 0.47 | – |
| CCCC[C@H](NC(=O)CNC(=O)CNC(=O)COCC(=O)NCCCN(CCCNC(=O)COCC(=O)NCCCC[C@@H]1NC(=O)[C@@H](Cc2ccccc2)NC(=O)[C@H](CC(=O)O)NC(=O)CNC(=O)[C@H](CCCNC(=N)N)NC1=O)CC(=O)N[C@@H](CCCCNC(=O)CCC[N+](C)(C)Cc1ccc([Si](F)(C(C)(C)C)C(C)(C)C)cc1)C(N)=O)C(=O)N[C@H]1CC(=O)NCCCC[C@@H](C(N)=O)NC(=O)[C@H](Cc2c[nH]c3ccccc23)NC(=O)[C@H](CCCNC(=N)N)NC(=O)[C@@H](Cc2ccccc2)NC(=O)[C@H](Cc2c[nH]cn2)NC1=O [HBPL 5, SiFAlin-APG-DIG-c(RGDfK)/GG-Nle-c(DHfRWK)] | 5900 ± 722 | 2.05 ± 0.35 | – |
| CCCC[C@H](NC(=O)CNC(=O)CNC(=O)[C@H](CCC(=O)O)NC(=O)CNC(=O)[C@H](CCC(=O)O)NC(=O)CNC(=O)[C@H](CCC(=O)O)NC(=O)C(=O)NCCCN(CCCNC(=O)C(=O)N[C@@H](CCC(=O)O)C(=O)NCC(=O)N[C@@H](CCC(=O)O)C(=O)NCC(=O)N[C@@H](CCC(=O)O)C(=O)NCCCC[C@@H]1NC(=O)[C@@H](Cc2ccccc2)NC(=O)[C@H](CC(=O)O)NC(=O)CNC(=O)[C@H](CCCNC(=N)N)NC1=O)CC(=O)N[C@@H](CCCCNC(=O)CCC[N+](C)(C)Cc1ccc([Si](F)(C(C)(C)C)C(C)(C)C)cc1)C(N)=O)C(=O)N[C@H]1CC(=O)NCCCC[C@@H](C(N)=O)NC(=O)[C@H](Cc2c[nH]c3ccccc23)NC(=O)[C@H](CCCNC(=N)N)NC(=O)[C@@H](Cc2ccccc2)NC(=O)[C@H](Cc2c[nH]cn2)NC1=O [HBPL 6, SiFAlin-APG-Ox-EGEGE-c(RGDfK)/GG-Nle-c(DHfRWK)] | > 100000 | 4.18 ± 0.32 | IC50 (U87MG) (integrin αvβ3; integrin αvβ3-positive U87MG cells, competitor [125I]I-echistatin, mean ± SD): could not be determined |
| N=C(N)NCCC[C@@H]1NC(=O)[C@H](CS)NC(=O)[C@@H](Cc2ccccc2)NC(=O)[C@H](CC(=O)O)NC(=O)CNC1=O [c(RGDfC), reference compound] (cyclo(RGD[dF]C)) | – | – | IC50 (integrin αvβ3; integrin αvβ3-positive U87MG cells, competitor [125I]I-echistatin, mean ± SD, read-out: IC50 (U87MG)): 1490 ± 210 nM |
| N=C(N)NCCC[C@@H]1NC(=O)[C@H](CCCCN)NC(=O)[C@@H](Cc2ccccc2)NC(=O)[C@H](CC(=O)O)NC(=O)CNC1=O [c(RGDfK), cyclic Arg-Gly-Asp-DPhe-Lys, reference compound] | – | – | receptor-specific binding to MC1R (MC1R; B16F10 cells, same conditions as IC50 assay (Figure S92)): no receptor-specific binding |
| Gly-Gly-Nle-cyclic Asp-His-DPhe-Arg-Trp-Lys [GG-Nle-c(DHfRWK), reference compound] | – | – | receptor-specific binding to integrin αvβ3 (integrin αvβ3; U87MG cells, same conditions as IC50 assay (Figure S92)): no receptor-specific binding |
| NDP: superpotent synthetic analog of the endogenous ligand α-MSH; reference and blocking substance [reference compound] | – | – | IC50 (MC1R; MC1R-positive B16F10 cells, competitor [125I]I-NDP, mean ± SD, read-out: IC50 (B16F10)): 0.17 ± 0.04 nM |
